According to PubChem BioAssay AID1963846 (Molecular Pharmacology Branch, DTP, NCI, 2024):

Test system: 454973-116-R2-J3-PDC complex spheroid viability
Assay: Anticancer human tumor 454973-116-R2-J3-PDC patient-derived pancreatic carcinoma cell line growth inhibition [POLQ]
Settings: for IC50: curve of first compound; for viability, T/C: stronger effect = lower value
Method in brief: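 Three-cell-type spheroids modelling solid tumor plus stroma served as the readout system; POL inhibitors were tested individually and in combination, concentration ranges set by clinical Cmax where known.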

[1] = second compound 0.0316 µM, first compound 0.0316 µM
[2] = second compound 0.0316 µM, first compound 0.1 µM
[3] = second compound 0.0316 µM, first compound 0.316 µM
[4] = second compound 0.0316 µM, first compound 1 µM
[5] = second compound 0.0316 µM, first compound 3.16 µM
[6] = second compound 0.0316 µM, first compound 10 µM
[7] = second compound 0.1 µM, first compound 0.0316 µM
[8] = second compound 0.1 µM, first compound 0.1 µM
[9] = second compound 0.1 µM, first compound 0.316 µM
[10] = second compound 0.1 µM, first compound 1 µM
[11] = second compound 0.1 µM, first compound 3.16 µM
[12] = second compound 0.1 µM, first compound 10 µM
[13] = second compound 0.316 µM, first compound 0.0316 µM
[14] = second compound 0.316 µM, first compound 0.1 µM
[15] = second compound 0.316 µM, first compound 0.316 µM
[16] = second compound 0.316 µM, first compound 1 µM
[17] = second compound 0.316 µM, first compound 3.16 µM
[18] = second compound 0.316 µM, first compound 10 µM
[19] = second compound 1 µM, first compound 0.0316 µM
[20] = second compound 1 µM, first compound 0.1 µM
[21] = second compound 1 µM, first compound 0.316 µM
[22] = second compound 1 µM, first compound 1 µM
[23] = second compound 1 µM, first compound 3.16 µM
[24] = second compound 1 µM, first compound 10 µM
[25] = second compound 3.16 µM, first compound 0.0316 µM
[26] = second compound 3.16 µM, first compound 0.1 µM
[27] = second compound 3.16 µM, first compound 0.316 µM
[28] = second compound 3.16 µM, first compound 1 µM
[29] = second compound 3.16 µM, first compound 3.16 µM
[30] = second compound 3.16 µM, first compound 10 µM
[31] = second compound 10 µM, first compound 0.0316 µM
[32] = second compound 10 µM, first compound 0.1 µM
[33] = second compound 10 µM, first compound 0.316 µM
[34] = second compound 10 µM, first compound 1 µM
[35] = second compound 10 µM, first compound 3.16 µM
[36] = second compound 10 µM, first compound 10 µM
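Also: spheroids exposed to drugs for seven days before measurement.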
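For viability, T/C in this document: percent viability relative to DMSO vehicle control wells taken as 100%.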

COc1cc2cc(C(=O)CCC(=O)O)sc2cc1OC + COC1C(OC(N)=O)C(O)C(Oc2ccc3c(O)c(NC(=O)c4ccc(O)c(CC=C(C)C)c4)c(=O)oc3c2C)OC1(C)C
IC50 (second compound 0.0316 µM): > 10 µM
IC50 (second compound 0.1 µM): > 10 µM
IC50 (second compound 0.316 µM): > 10 µM
IC50 (second compound 1 µM): > 10 µM
IC50 (second compound 3.16 µM): > 10 µM
IC50 (second compound 10 µM): > 10 µM
viability, T/C [1]: 95.3%
viability, T/C [2]: 100%
viability, T/C [3]: 102%
viability, T/C [4]: 121%
viability, T/C [5]: 113%
viability, T/C [6]: 96%
viability, T/C [7]: 101%
viability, T/C [8]: 115%
viability, T/C [9]: 99.3%
viability, T/C [10]: 118%
viability, T/C [11]: 111%
viability, T/C [12]: 102%
viability, T/C [13]: 109%
viability, T/C [14]: 110%
viability, T/C [15]: 120%
viability, T/C [16]: 110%
viability, T/C [17]: 104%
viability, T/C [18]: 97.2%
viability, T/C [19]: 107%
viability, T/C [20]: 102%
viability, T/C [21]: 127%
viability, T/C [22]: 110%
viability, T/C [23]: 107%
viability, T/C [24]: 93.8%
viability, T/C [25]: 110%
viability, T/C [26]: 103%
viability, T/C [27]: 105%
viability, T/C [28]: 112%
viability, T/C [29]: 105%
viability, T/C [30]: 93%
viability, T/C [31]: 114%
viability, T/C [32]: 102%
viability, T/C [33]: 93.6%
viability, T/C [34]: 100%
viability, T/C [35]: 99.4%
viability, T/C [36]: 90.5%

COc1cccc(OCCCN)c1-c1cc(Nc2cnc(C#N)cn2)n[nH]1 + COC1C(OC(N)=O)C(O)C(Oc2ccc3c(O)c(NC(=O)c4ccc(O)c(CC=C(C)C)c4)c(=O)oc3c2C)OC1(C)C
IC50 (second compound 0.0316 µM): 0.0169 µM
IC50 (second compound 0.1 µM): 0.0165 µM
IC50 (second compound 0.316 µM): 0.0152 µM
IC50 (second compound 1 µM): 0.0155 µM
IC50 (second compound 3.16 µM): 0.0158 µM
IC50 (second compound 10 µM): 0.0151 µM
viability, T/C (second compound 0.0316 µM, first compound 0.00316 µM): 103%
viability, T/C (second compound 0.0316 µM, first compound 0.01 µM): 78%
viability, T/C [1]: 16.5%
viability, T/C [2]: 5.78%
viability, T/C [3]: 6.6%
viability, T/C [4]: 5.48%
viability, T/C (second compound 0.1 µM, first compound 0.00316 µM): 103%
viability, T/C (second compound 0.1 µM, first compound 0.01 µM): 78.8%
viability, T/C [7]: 12.9%
viability, T/C [8]: 5.6%
viability, T/C [9]: 5.16%
viability, T/C [10]: 6.37%
viability, T/C (second compound 0.316 µM, first compound 0.00316 µM): 95.6%
viability, T/C (second compound 0.316 µM, first compound 0.01 µM): 70.8%
viability, T/C [13]: 13.3%
viability, T/C [14]: 5.72%
viability, T/C [15]: 3.83%
viability, T/C [16]: 4.13%
viability, T/C (second compound 1 µM, first compound 0.00316 µM): 97%
viability, T/C (second compound 1 µM, first compound 0.01 µM): 73.2%
viability, T/C [19]: 12.2%
viability, T/C [20]: 6.82%
viability, T/C [21]: 5.97%
viability, T/C [22]: 5.82%
viability, T/C (second compound 3.16 µM, first compound 0.00316 µM): 107%
viability, T/C (second compound 3.16 µM, first compound 0.01 µM): 75.5%
viability, T/C [25]: 11%
viability, T/C [26]: 7.17%
viability, T/C [27]: 6.78%
viability, T/C [28]: 5.38%
viability, T/C (second compound 10 µM, first compound 0.00316 µM): 104%
viability, T/C (second compound 10 µM, first compound 0.01 µM): 68%
viability, T/C [31]: 17.8%
viability, T/C [32]: 6.01%
viability, T/C [33]: 7.28%
viability, T/C [34]: 7.27%

O=C(c1cc(Cc2n[nH]c(=O)c3ccccc23)ccc1F)N1CCN(C(=O)C2CC2)CC1 + Nc1ccc(C#CCN(C(=O)Cc2ncc(C(F)(F)F)cc2C(F)(F)F)c2ccc(F)cc2)nn1
IC50 (second compound 0.0316 µM): > 10 µM
IC50 (second compound 0.1 µM): > 10 µM
IC50 (second compound 0.316 µM): 9.69 µM
IC50 (second compound 1 µM): > 10 µM
IC50 (second compound 3.16 µM): > 10 µM
IC50 (second compound 10 µM): > 10 µM
viability, T/C [1]: 101%
viability, T/C [2]: 101%
viability, T/C [3]: 90.8%
viability, T/C [4]: 91%
viability, T/C [5]: 95.1%
viability, T/C [6]: 58.9%
viability, T/C [7]: 101%
viability, T/C [8]: 101%
viability, T/C [9]: 102%
viability, T/C [10]: 102%
viability, T/C [11]: 83.5%
viability, T/C [12]: 62.2%
viability, T/C [13]: 102%
viability, T/C [14]: 105%
viability, T/C [15]: 103%
viability, T/C [16]: 98.2%
viability, T/C [17]: 90.5%
viability, T/C [18]: 48.2%
viability, T/C [19]: 104%
viability, T/C [20]: 105%
viability, T/C [21]: 114%
viability, T/C [22]: 102%
viability, T/C [23]: 97.4%
viability, T/C [24]: 54.6%
viability, T/C [25]: 111%
viability, T/C [26]: 112%
viability, T/C [27]: 102%
viability, T/C [28]: 99.9%
viability, T/C [29]: 101%
viability, T/C [30]: 59.7%
viability, T/C [31]: 117%
viability, T/C [32]: 113%
viability, T/C [33]: 113%
viability, T/C [34]: 112%
viability, T/C [35]: 101%
viability, T/C [36]: 57.2%

O=C(Nc1ccc(O)c(NS(=O)(=O)c2ccc(F)cc2)c1)c1ccc(-c2ccccc2)cc1 + Nc1ccc(C#CCN(C(=O)Cc2ncc(C(F)(F)F)cc2C(F)(F)F)c2ccc(F)cc2)nn1
IC50 (second compound 0.0316 µM): > 10 µM
IC50 (second compound 0.1 µM): > 10 µM
IC50 (second compound 0.316 µM): > 10 µM
IC50 (second compound 1 µM): > 10 µM
IC50 (second compound 3.16 µM): > 10 µM
IC50 (second compound 10 µM): > 10 µM
viability, T/C [1]: 109%
viability, T/C [2]: 107%
viability, T/C [3]: 108%
viability, T/C [4]: 114%
viability, T/C [5]: 108%
viability, T/C [6]: 86.5%
viability, T/C [7]: 101%
viability, T/C [8]: 107%
viability, T/C [9]: 110%
viability, T/C [10]: 103%
viability, T/C [11]: 103%
viability, T/C [12]: 89.9%
viability, T/C [13]: 105%
viability, T/C [14]: 104%
viability, T/C [15]: 109%
viability, T/C [16]: 107%
viability, T/C [17]: 110%
viability, T/C [18]: 89.2%
viability, T/C [19]: 110%
viability, T/C [20]: 108%
viability, T/C [21]: 111%
viability, T/C [22]: 112%
viability, T/C [23]: 109%
viability, T/C [24]: 80.9%
viability, T/C [25]: 107%
viability, T/C [26]: 106%
viability, T/C [27]: 106%
viability, T/C [28]: 120%
viability, T/C [29]: 123%
viability, T/C [30]: 86.8%
viability, T/C [31]: 123%
viability, T/C [32]: 112%
viability, T/C [33]: 112%
viability, T/C [34]: 120%
viability, T/C [35]: 109%
viability, T/C [36]: 85.5%
